Measured values from ChEMBL document CHEMBL1156271, “Discovery and SAR of novel pyrazole-based thioethers as cathepsin S inhibitors: part 1” (Bioorg Med Chem Lett, 2010).

Assays:
Cathepsin S [1] = target: T1, Cathepsin S (Homo sapiens, UniProt P25774); experiment: Inhibition of human cathepsin S
Cathepsin S [2] = target: T1, Cathepsin S; experiment: Inhibition of cathepsin S in human JY cells assessed as inhibition of invariant chain degradation; format: cell-based

T1 sequence (P25774 whole entry): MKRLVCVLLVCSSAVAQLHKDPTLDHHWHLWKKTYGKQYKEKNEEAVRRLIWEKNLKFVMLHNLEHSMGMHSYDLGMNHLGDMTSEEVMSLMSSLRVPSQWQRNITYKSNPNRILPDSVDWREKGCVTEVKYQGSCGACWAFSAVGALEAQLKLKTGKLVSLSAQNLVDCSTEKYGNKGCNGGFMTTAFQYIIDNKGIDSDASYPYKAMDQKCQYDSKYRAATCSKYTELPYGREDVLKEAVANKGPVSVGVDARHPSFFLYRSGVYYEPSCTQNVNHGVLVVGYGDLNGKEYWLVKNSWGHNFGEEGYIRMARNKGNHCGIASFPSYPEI

| SMILES | IC50 (Cathepsin S [1]) [µM] | IC50 (Cathepsin S [2]) [µM] |
| --- | --- | --- |
| CS(=O)(=O)N1CCc2c(c(-c3ccc(Cl)c(SCCO)c3)nn2CCCN2CCOCC2)C1 | 0.96 | – |
| CS(=O)(=O)N1CCc2c(c(-c3ccc(C(F)(F)F)c(SCCN4CCCCC4)c3)nn2CCCN2CCCC2)C1 | – | 0.47 |
| CS(=O)(=O)N1CCc2c(c(-c3ccc(C(F)(F)F)c(SCCN4CCOCC4)c3)nn2CCCN2CCC(N3CCCC3=O)CC2)C1 | – | 0.68 |
| CS(=O)(=O)N1CCc2c(c(-c3ccc(C(F)(F)F)c(SCCN4CCC(c5ccccc5)CC4)c3)nn2CCCN2CCC(N3CCCC3=O)CC2)C1 | – | 0.95 |
| CC1CCN(CCSc2cc(-c3nn(CCCN4CCC(N5CCCC5=O)CC4)c4c3CN(S(C)(=O)=O)CC4)ccc2C(F)(F)F)CC1 | – | 0.81 |
| CS(=O)(=O)N1CCc2c(c(-c3ccc(C(F)(F)F)c(SCCN4CCC5CCCCC5C4)c3)nn2CCCN2CCC(N3CCCC3=O)CC2)C1 (centres undefined) | 0.055 | 0.46 |
| CS(=O)(=O)N1CCc2c(c(-c3ccc(C(F)(F)F)c(SCCN4CCCCC4)c3)nn2CCCN2CCOCC2)C1 | – | 3.57 |

Next, values leading:

| IC50 (Cathepsin S [1]) [µM] | IC50 (Cathepsin S [2]) [µM] | SMILES |
| --- | --- | --- |
| – | 0.13 | CN1CCN(CCSc2cc(-c3nn(CCCN4CCC(N5CCCC5=O)CC4)c4c3CN(S(C)(=O)=O)CC4)ccc2C(F)(F)F)CC1 |
| – | 0.46 | CS(=O)(=O)N1CCc2c(c(-c3ccc(C(F)(F)F)c(SCCNCc4ccccc4)c3)nn2CCCN2CCC(N3CCCC3=O)CC2)C1 |
| – | 0.08 | CS(=O)(=O)N1CCc2c(c(-c3ccc(C(F)(F)F)c(SCCN4CCCC4)c3)nn2CCCN2CCC(N3CCCC3=O)CC2)C1 |
| – | 0.35 | CS(=O)(=O)N1CCc2c(c(-c3ccc(C(F)(F)F)c(SCCN4CCC(O)CC4)c3)nn2CCCN2CCC(N3CCCC3=O)CC2)C1 |
| – | 0.33 | CC(C)(C)C1CCN(CCSc2cc(-c3nn(CCCN4CCC(N5CCCC5=O)CC4)c4c3CN(S(C)(=O)=O)CC4)ccc2C(F)(F)F)CC1 |
| – | 0.32 | CS(=O)(=O)N1CCc2c(c(-c3ccc(C(F)(F)F)c(SCCN4CCCCC4)c3)nn2CCCN2CCC(N3CCCC3)CC2)C1 |
